For one test, the system named is F. proliferatum. Put plainly: Agar test: seed contamination and mycelium growth on artificially infected corn seeds. It counts as cell-based, Fusarium proliferatum. The settings on record: corn cv. Magister, after 6 days. The procedure:
(§1) An agar test is performed to evaluate the effect of seed treatments with fludioxonil (2.5 g/100 kg seed)+mefenoxam (1.0 g/100 kg seed), thiabendazole at 10, 15 and 20 g/100 kg seed and the corresponding mixtures of all three components on seed health and viability of corn. Seed lots of corn cv. Magister, is infected artificially with either F. proliferatum or F. subglutinans, are used.
(§2) Czapek-Dox medium (OXOID) is prepared according to manufacturer's recipe: 45.4 g agar in 1 l aqua bidest., autoclaved for 15 min at 121° C., and is cooled down to 55° C. 15 ml medium is poured into each petridish (Ø 10 cm) and is allowed to cool.
(§3) 10 seeds are placed on the surface of the agar. 5 replicates per treatment are done. Petridishes are placed in an incubator at 20° C. under NUV-light (12 h a day). The number of seeds where Fusarium spp. grew out on the agar is rated after an incubation period of 6 days.
(§4) • Mefenoxam (1.0 g ai/100 kg seed)+fludioxonil (2.5 g ai/100 kg seed). • Thiabendazole at 10, 15 and 20 g ai/100 kg seed. • Mefenoxam (1.0 g ai/100 kg seed)+fludioxonil (2.5 g ai/100 kg seed)+thiabendazole (at 10, 15 or 20 g ai/100 kg seed).
(§5) For combined treatments mefenoxam+fludioxonil are applied first on the seeds as a combined formulation and after drying the second application on the seeds with thiabendazole is performed.

A further test relates to F. subglutinans. The test is described as above. The format is cell-based, Fusarium subglutinans. The settings on record: corn cv. Magister; for FUSSUB Activity Observed / FUSSUB Contaminated Seeds / FUSSUB Mycelium Growth: after 6 days. The procedure:
as §1, §2, §3, §4, §5

[1] abbreviates: thiabendazole 10 g ai/100 kg seed (mixture: plus mefenoxam 1.0 g + fludioxonil 2.5 g ai/100 kg seed).
[2] abbreviates: thiabendazole 15 g ai/100 kg seed (mixture: plus mefenoxam 1.0 g + fludioxonil 2.5 g ai/100 kg seed).
Where [3] appears, read: thiabendazole 20 g ai/100 kg seed (mixture: plus mefenoxam 1.0 g + fludioxonil 2.5 g ai/100 kg seed).

Regarding `c1ccc2[nH]c(-c3cscn3)nc2c1` [Thiabendazole, thiabendazole], the “FUSPRO Activity Observed” value in the test with F. proliferatum (setting [1]) came out at 40%. Further, the “FUSPRO Contaminated Seeds” value was 62% in the test with F. proliferatum (setting [1]); 44% with F. proliferatum (setting [2]); 40% in the test with F. proliferatum (setting [3]); “reduces the number of Fusarium infected seeds” in the test with F. proliferatum (thiabendazole 20 g ai/100 kg seed (mixture: plus mefenoxam 1.0 g + fludioxonil 2.5 g ai/100 kg seed), listed as thiabendazole). Besides, the “FUSPRO Mycelium Growth” value with F. proliferatum (setting [1]) was roughly 60%. The “FUSSUB Activity Observed” value turned out to be 32% with F. subglutinans (setting [1]), 60% with F. subglutinans (setting [2]) and 91% in the test with F. subglutinans (setting [3]). The “FUSSUB Contaminated Seeds” value in the test on F. subglutinans (setting [1]) came out at 94%; in the test on F. subglutinans (setting [2]), 100%; with F. subglutinans (setting [3]), 52%. Besides, the “FUSSUB Mycelium Growth” value in the test on F. subglutinans (setting [1]) is reported as 68%; in the test on F. subglutinans (setting [2]) it was 40%; in the test with F. subglutinans (setting [3]) it was 9%. Moreover, the “Mycelium growth, dose response (in words)” value with F. subglutinans (thiabendazole at 10, 15 and 20 g ai/100 kg seed) was “linear dose response”.

Source of the values: patent publication US8691727B2, “Pesticidal compositions” (Syngenta Crop Protection, LLC, priority 2005, dated 2014).
